As usually defined, the IC50 is the point on the concentration scale where inhibition reaches its midpoint. In general, EC50 refers to the concentration needed to bring the measured effect to its halfway point.

Assay [1] concerns the target Human Cot (Homo sapiens (Human), UniProt P41279). In words: High Throughput Cot Biochemical Assay. The conditions noted are these: Cot HTRF (TR-FRET) biochemical assay. On the technique in general: TR-FRET usually uses a lanthanide donor and a delayed reading to cut background.
The test system of assay [2] is TNFα. In words: Cot Monocyte TNFα Cell Based Assay.
The mark [3] stands for this setting: Homo sapiens, Monocyte, read-out: EC50 TNF, LPS-stimulated human monocytes, TNFα.

Where two headings read alike, the source gives them in different places.

Sequence of Human Cot (P41279 30-397): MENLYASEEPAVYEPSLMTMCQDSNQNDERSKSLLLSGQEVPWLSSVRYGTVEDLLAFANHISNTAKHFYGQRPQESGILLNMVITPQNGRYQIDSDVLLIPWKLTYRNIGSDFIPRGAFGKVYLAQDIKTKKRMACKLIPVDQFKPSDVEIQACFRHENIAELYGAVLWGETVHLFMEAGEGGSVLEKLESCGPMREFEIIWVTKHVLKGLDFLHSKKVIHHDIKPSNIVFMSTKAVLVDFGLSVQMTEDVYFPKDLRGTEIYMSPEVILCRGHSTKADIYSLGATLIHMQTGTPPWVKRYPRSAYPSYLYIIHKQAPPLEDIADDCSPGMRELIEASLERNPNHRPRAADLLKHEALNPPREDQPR

Regarding `Cc1nc(F)ccc1[C@H](Nc1cc(F)c2ncc(C#N)c(NCC(C)(C)C)c2c1)c1cn(C2(C(N)=O)CC2)nn1` [Example 486, (S)-1-(4-(((3-cyano-8-fluoro-4-(neopentyl-amino)quinolin-6-yl)amino)(6-fluoro-2-methylpyridin-3-yl)methyl)-1H-1,2,3-triazol-1-yl)cyclopropane-1-carboxamide], the IC50 in assay [1] (IC50 HTRF) turned out to be 3 nM. Besides, the EC50 in assay [2] (setting [3]) is 991 nM.
The corresponding values for `Cc1nc(F)ccc1[C@H](Nc1cc(F)c2ncc(C#N)c(NCC(C)(C)C)c2c1)c1cn(C2(C(N)=O)CCC2)nn1` [Example 487, (S)-1-(4-(((3-cyano-8-fluoro-4-(neopentyl-amino)quinolin-6-yl)amino)(6-fluoro-2-methylpyridin-3-yl)methyl)-1H-1,2,3-triazol-1-yl)cyclobutane-1-carboxamide] are 1 nM and 245 nM.
The corresponding values for `Cc1nc(F)ccc1[C@H](Nc1cc(F)c2ncc(C#N)c(NCC(C)(C)C)c2c1)c1cn(C2(C)CC2)nn1` [Example 488, (S)-8-fluoro-6-(((6-fluoro-2-methylpyridin-3-yl)(1-(1-methylcyclopropyl)-1H-1,2,3-triazol-4-yl)methyl)amino)-4-(neopentyl-amino)quinoline-3-carbonitrile] are 3 nM and 79 nM.
Taken in the same sequence, the figures for `Cc1nc(F)ccc1[C@H](Nc1cc(C#N)c2ncc(C#N)c(NCC(C)(C)C)c2c1)c1cn(C2(C#N)CC2)nn1` [Example 489, (S)-6-(((1-(1-cyanocyclopropyl)-1H-1,2,3-triazol-4-yl)(6-fluoro-2-methylpyridin-3-yl)methyl)amino)-4-(neopentylamino)-quinoline-3,8-dicarbonitrile] were 2 nM and 129 nM.
In the case of `Cc1nc(F)ccc1[C@H](Nc1cc(C#N)c2ncc(C#N)c(NCC(C)(C)C)c2c1)c1cn(C2(C(N)=O)CC2)nn1` [Example 490, (S)-1-(4-(((3,8-dicyano-4-(neopentylamino)-quinolin-6-yl)amino)(6-fluoro-2-methylpyridin-3-yl)methyl)-1H-1,2,3-triazol-1-yl)cyclopropane-1-carboxamide], the midpoint of inhibition in assay [1] (IC50 HTRF), the IC50, lay at 1 nM. In addition, in assay [2] (setting [3]), the EC50 amounted to 1000 nM.
`Cc1nc(F)ccc1[C@H](Nc1cc(C#N)c2ncc(C#N)c(NCC(C)(C)C)c2c1)c1cn(C2(C#N)CCC2)nn1` [Example 491, (S)-6-(((1-(1-cyanocyclobutyl)-1H-1,2,3-triazol-4-yl)(6-fluoro-2-methylpyridin-3-yl)methyl)amino)-4-(neopentylamino)-quinoline-3,8-dicarbonitrile] had an IC50 in assay [1] (IC50 HTRF) of 3 nM. For the same molecule, in assay [2] (setting [3]), the EC50 came to 40 nM.
Taken in the same sequence, the figures for `Cc1nc(F)ccc1[C@H](Nc1cc(C#N)c2ncc(C#N)c(NCC(C)(C)C)c2c1)c1cn(C2(C)CC2)nn1` [Example 492, (S)-6-(((6-fluoro-2-methylpyridin-3-yl)(1-(1-methylcyclopropyl)-1H-1,2,3-triazol-4-yl)methyl)amino)-4-(neopentylamino)-quinoline-3,8-dicarbonitrile] were 2 nM and 21 nM.
Taken in the same sequence, the figures for `CC(C)(C)CNc1c(C#N)cnc2c(Cl)cc(N[C@H](c3cn(C4(C(F)(F)F)CC4)nn3)c3cnn4ncccc34)cc12` [Example 493, (S)-8-chloro-4-(neopentylamino)-6-((pyrazolo[1,5-b]pyridazin-3-yl(1-(1-(trifluoromethyl)cyclopropyl)-1H-1,2,3-triazol-4-yl)methyl)amino)quinoline-3-carbonitrile] were 31 nM and 1000 nM.
In assay [1] (IC50 HTRF), `Cc1nc(F)ccc1[C@H](Nc1cc(C#N)c2ncc(C#N)c(NCC(C)(C)C)c2c1)c1cn(C2(C(N)=O)CCC2)nn1` [Example 494, (S)-1-(4-(((3,8-dicyano-4-(neopentyl-amino)quinolin-6-yl)amino)(6-fluoro-2-methylpyridin-3-yl)methyl)-1H-1,2,3-triazol-1-yl)cyclobutane-1-carboxamide] registered an IC50 of 1 nM. Moreover, the EC50 in assay [2] (setting [3]) came out at 444 nM.
Regarding `Cc1nc(F)ccc1[C@H](Nc1cc(Cl)c2ncc(C#N)c(NCC(C)(C)C)c2c1)c1cn(C2(CF)CC2)nn1` [Example 495, (S)-8-chloro-6-(((6-fluoro-2-methylpyridin-3-yl)(1-(1-(fluoromethyl)cyclopropyl)-1H-1,2,3-triazol-4-yl)methyl)amino)-4-(neopentylamino)quinoline-3-carbonitrile], the half-inhibitory concentration (IC50) in assay [1] (IC50 HTRF) turned out to be 3 nM. Besides, the EC50 in assay [2] (setting [3]) stood at 50 nM.
The corresponding values for `Cn1ncc2c([C@H](Nc3cc(Cl)c4ncc(C#N)c(NCC(C)(C)C)c4c3)c3cn(C4(C(F)F)CC4)nn3)cccc21` [Example 496, (S)-8-chloro-6-(((1-(1-(difluoromethyl)-cyclopropyl)-1H-1,2,3-triazol-4-yl)(1-methyl-1H-indazol-4-yl)methyl)amino)-4-(neopentylamino)quinoline-3-carbonitrile] are 6 nM and 467 nM.
On to `Cn1cc2c([C@H](Nc3cc(Cl)c4ncc(C#N)c(NCC(C)(C)C)c4c3)c3cn(C4(C(F)F)CC4)nn3)cccc2n1` [Example 497, (S)-8-chloro-6-(((1-(1-(difluoromethyl)-cyclopropyl)-1H-1,2,3-triazol-4-yl)(2-methyl-2H-indazol-4-yl)methyl)amino)-4-(neopentylamino)quinoline-3-carbonitrile], for which the IC50 in assay [1] (IC50 HTRF) turned out to be 6 nM. Further, the EC50 in assay [2] (setting [3]) is 379 nM.
The corresponding values for `CN1Cc2cccc([C@H](Nc3cc(Cl)c4ncc(C#N)c(NCC(C)(C)C)c4c3)c3cn(C4(C(F)F)CC4)nn3)c2C1=O` [Example 498, (S)-8-chloro-6-(((1-(1-(difluoromethyl)-cyclopropyl)-1H-1,2,3-triazol-4-yl)(2-methyl-3-oxoisoindolin-4-yl)methyl)-amino)-4-(neopentylamino)quinoline-3-carbonitrile] are 19 nM and 689 nM.
Take `CC(C)(C)CNc1c(C#N)cnc2c(Cl)cc(N[C@H](c3cn(C4(C(F)F)CC4)nn3)c3cccc4[nH]ncc34)cc12` [Example 500, (S)-8-chloro-6-(((1-(1-(difluoromethyl- )cyclopropyl)-1H-1,2,3-triazol-4-yl)(1H-indazol-4-yl)methyl)amino)-4-(neopentylamino)quinoline-3-carbonitrile]: the IC50 in assay [1] (read-out: IC50 HTRF) was 8 nM. Moreover, the EC50 in assay [2] (read-out: EC50 TNF, LPS-stimulated human monocytes, TNFα) came to 321 nM.
In assay [1] (IC50 HTRF), `[2H]C([2H])(Nc1c(C#N)cnc2c(Cl)cc(N[C@H](c3cn(C4(C(F)F)CC4)nn3)c3ccc(F)nc3C)cc12)C(C)(C)C` [Example 501, (S)-8-chloro-6-(((1-(1-(difluoromethyl)-cyclopropyl)-1H-1,2,3-triazol-4-yl)(6-fluoro-2-methylpyridin-3-yl)methyl)amino)-4-((2,2-dimethylpropyl-1,1-d2)amino)-quinoline-3-carbonitrile] had an IC50 of 3 nM. In addition, in assay [2] (setting [3]), the EC50 turned out to be 55 nM.
The corresponding values for `Cc1nc(F)ccc1[C@H](Nc1cc(Cl)c2ncc(C#N)c(NCC3(C)CCC3)c2c1)c1cn(C2(C(F)F)CC2)nn1` [Example 502, (S)-8-chloro-6-(((1-(1-(difluoromethyl)-cyclopropyl)-1H-1,2,3-triazol-4-yl)(6-fluoro-2-methylpyridin-3-yl)methyl)-amino)-4-(((1-methylcyclobutyl)methyl)-amino) quinoline-3-carbonitrile] are 6 nM and 206 nM.
The corresponding values for `Cc1nc(F)ccc1[C@H](Nc1cc(C#N)c2ncc(C#N)c(NCC(C)(C)C)c2c1)c1cn(C2(CF)CC2)nn1` [Example 503, (S)-6-(((6-fluoro-2-methylpyridin-3-yl)(1-(1-(fluoromethyl)cyclopropyl)-1H-1,2,3-triazol-4-yl)methyl)amino)-4-(neopentylamino)quinoline-3,8-dicarbonitrile] are 2 nM and 45 nM.
The corresponding values for `CC(C)(C)CNc1c(C#N)cnc2c(Cl)cc(N[C@H](c3cn(C4CC4)nn3)c3cccc4ccncc34)cc12` [Example 504, (S)-8-chloro-6-(((1-cyclopropyl-1H-1,2,3-triazol-4-yl)(isoquinolin-8-yl)methyl)amino)-4-(neopentylamino)quinoline-3-carbonitrile] are 1 nM and 38 nM.
`CC(C)(C)CNc1c(C#N)cnc2c(Cl)cc(N[C@@H](c3cccnc3)c3cn(C4(C(F)F)CC4)nn3)cc12` [Example 506, (S)-8-chloro-6-(((1-(1-(difluoromethyl)-cyclopropyl)-1H-1,2,3-triazol-4-yl)(pyridin-3-yl)methyl)amino)-4-(neopentylamino)quinoline-3-carbonitrile]: 8 nM corresponded to half-maximal inhibition in assay [1] (IC50 HTRF) (IC50). For the same molecule, the EC50 in assay [2] (setting [3]) was 528 nM.
Take `CC(C)(C)CNc1c(C#N)cnc2c(Cl)cc(N[C@H](c3cn(C4(C(F)F)CC4)nn3)c3cccc4ncccc34)cc12` [Example 508, (S)-8-chloro-6-(((1-(1-(difluoromethyl)-cyclopropyl)-1H-1,2,3-triazol-4-yl)(quinolin-5-yl)methyl)amino)-4-(neopentylamino)-quinoline-3-carbonitrile]: in assay [1] (IC50 HTRF), the IC50 was found to be 4 nM. Besides, the EC50 in assay [2] (setting [3]) amounted to 96 nM.
The corresponding values for `Cc1nc(F)ccc1[C@@H](Nc1cc(Cl)c2ncc(C#N)c(NCC(C)(C)C)c2c1)c1cn(C2(C(F)F)CC2)nn1` [Example 509, (R)-8-chloro-6-(((1-(1-(difluoromethyl)-cyclopropyl)-1H-1,2,3-triazol-4-yl)(6-fluoro-2-methylpyridin-3-yl)methyl)amino)-4-(neopentylamino)quinoline-3-carbonitrile] are 267 nM and 1000 nM.
Taken in the same sequence, the figures for `Cc1nc(F)ccc1[C@H](Nc1cc(Cl)c2ncc(C#N)c(NC3CCOC3(C)C)c2c1)c1cn(C2(C(F)F)CC2)nn1` (stereo partly drawn) [Example 511, 8-chloro-6-(((S)-(1-(1-(difluoromethyl)-cyclopropyl)-1H-1,2,3-triazol-4-yl)(6-fluoro-2-methylpyridin-3-yl)methyl)amino)-4-((2,2-dimethyltetrahydrofuran-3-yl)amino)-quinoline-3-carbonitrile] were 6 nM and 133 nM.

The values above are taken from patent US11066414B2, “Cot modulators and methods of use thereof” (Gilead Sciences, Inc., priority 2015, dated 2021).
